Laboratory results published in the PolyMetriX glass transition set.

Point of comparison: `*CC(CC)(CCl)CO*` (repeat unit), glass transition temperature 20.00 °C. Against it:
- */C=C(/*)C(CCCCC)[Si](C)(C)C (repeat unit) — higher, 170.00 °C
- *c1ccc(Oc2ccc(-c3ccc(Oc4ccc(N5C(=O)c6cccc(Oc7ccc(C(C)(C)c8ccc(Oc9cccc%10c9C(=O)N(*)C%10=O)cc8)cc7)c6C5=O)cc4)cc3)cc2)cc1 (repeat unit) — higher, 236.00 °C
- *CCOC(=O)C1CCC(C(=O)OCCOc2ccc(C3(c4ccc(O*)cc4)c4ccccc4-c4ccccc43)cc2)CC1 (repeat unit) — higher, 120.1 °C
- *c1ccc(C(=O)Nc2ccc(-c3ccccc3NC(=O)c3ccc(S(*)(=O)=O)cc3)cc2)cc1 (repeat unit) — higher, 284.00 °C
- *Oc1ccc(/C=N/c2ccc(/N=C/c3ccc(Oc4ccc(C(c5ccccc5)(c5ccccc5)c5ccc(*)cc5)cc4)cc3)cc2)cc1 (repeat unit) — higher, 230.00 °C
- *Oc1ccc(C(=O)c2ccc(Oc3ccc(C(=O)c4ccc(Oc5ccc(Cc6ccc(*)cc6)cc5)cc4)cc3)cc2)cc1 (repeat unit) — higher, 128.00 °C
- *c1cccc(P(C)(=O)c2cccc(N3C(=O)c4ccc(NC(=O)OCCOc5ccc(P(=O)(c6ccccc6)c6ccc(OCCOC(=O)Nc7ccc8c(c7)C(=O)N(*)C8=O)cc6)cc5)cc4C3=O)c2)c1 (repeat unit) — higher, 201.00 °C
- *Oc1ccc(OC(=O)c2ccc(Oc3ccc(C(*)=O)cc3)cc2)c2ccccc12 (repeat unit) — higher, 166.00 °C
- *c1ccc(NC2CC(=O)N(c3ccc(-c4sc(-c5ccc(N6C(=O)CC(Nc7ccc(-c8nc(C#N)c(C#N)nc8*)cc7)C6=O)cc5)c(-c5ccccc5)c4-c4ccccc4)cc3)C2=O)cc1 (repeat unit) — higher, 231.00 °C
- *Nc1cccc2c(NC(=O)c3ccc(NC(=O)c4ccc([Si](C)(C)c5ccc(C(=O)Nc6ccc(C(*)=O)cc6)cc5)cc4)cc3)cccc12 (repeat unit) — higher, 378.00 °C
- *CC(*)(C)C(=O)OCCCCCCOc1ccc(C(=O)Oc2ccc(/N=N/c3ccc(C)cc3)c3ccccc23)cc1 (repeat unit) — higher, 40.00 °C
- *C1C(=O)N(CCCOc2ccc(-c3ccc(C#N)cc3)cc2)C(=O)C1* (repeat unit) — higher, 130.00 °C
- *Oc1ccc(C2(c3ccc(OC(=O)CCCCCCCC(*)=O)cc3)c3ccccc3-c3ccccc32)cc1 (repeat unit) — higher, 150.00 °C
- *Oc1ccc(C2(c3ccc(OC(=O)c4ccc(C(*)=O)cc4)cc3)c3ccccc3Cc3ccccc32)cc1 (repeat unit) — higher, 342.00 °C
- *N=P(N=P(/N=S(/*)Oc1ccc(-c2ccccc2)cc1)(Oc1ccc(-c2ccccc2)cc1)Oc1ccc(-c2ccccc2)cc1)(Oc1ccc(-c2ccccc2)cc1)Oc1ccc(-c2ccccc2)cc1 (repeat unit) — higher, 69.00 °C
- *CCSSCCO* (repeat unit) — lower, -53.00 °C
- *CCCOC(=O)O* (repeat unit) — lower, -17.70 °C
- *c1ccc(S(=O)(=O)c2ccc(NC(=O)c3cccc(C(=O)Nc4ccc(S(=O)(=O)c5ccc(-n6c(=O)c7cc8c(=O)n(*)c(=O)c8cc7c6=O)cc5)cc4)c3)cc2)cc1 (repeat unit) — higher, 286.00 °C
- *Oc1ccc(CC(NC(=O)CCc2ccc(OC(=O)CCCCCCCCC(*)=O)cc2)C(=O)OC)cc1 (repeat unit) — higher, 47.00 °C
- *CCCCCCOc1ccc(/C=C2\CCC/C(=C\c3ccc(O*)cc3)C2=O)cc1 (repeat unit) — higher, 116.00 °C
- *Oc1ccc(C(=O)c2ccc(Oc3ccc4c(=O)n5c6cc(-c7ccc8c(c7)nc7c9ccc(*)c%10cccc(c(=O)n87)c%109)ccc6nc5c5cccc3c45)cc2)cc1 (repeat unit) — higher, 389.00 °C
- *c1ccc(-c2nnc(*)o2)c(OCCCCCCCC)c1 (repeat unit) — higher, 173.00 °C
- *CC(COC(=O)O*)OCCOc1ccc(/C=C/c2ccc([N+](=O)[O-])cc2)cc1 (repeat unit) — higher, 53.00 °C
- *C(=O)Nc1ccc(Oc2ccc(C(=O)c3ccc(Oc4ccc(NC(=O)c5ccc(*)nc5)cc4)cc3)cc2)cc1 (repeat unit) — higher, 170.00 °C
- *c1ccc(C(=O)OCCCCCCCCOC(=O)c2ccc(-c3nnc(*)s3)cc2)cc1 (repeat unit) — higher, 86.00 °C
- *c1ccc([Si](C)(C)[Si](*)(C)C)s1 (repeat unit) — lower, 15.00 °C
- *c1c(C)cc(-c2cc(C)c(N3C(=O)c4ccc(Oc5c(C)cc(Cc6cc(C)c(Oc7ccc8c(c7)C(=O)N(*)C8=O)c(C)c6)cc5C)cc4C3=O)c(C)c2)cc1C (repeat unit) — higher, 420.00 °C
- *CC(*)OCCCCCCCOc1ccc(-c2ccc(C#N)cc2)cc1 (repeat unit) — lower, 13.00 °C
- *Oc1ccc(C(=O)c2ccc(OC(=O)OC3C(C)(C)C(OC(*)=O)C3(C)C)cc2)cc1 (repeat unit) — higher, 125.00 °C
- *Oc1ccc(/N=C/c2ccc(Oc3ccc(C(c4ccc(Oc5ccc(/C=N/c6ccc(Oc7ccc(-c8ccc(*)cc8)cc7)cc6)cc5)cc4)(C(F)(F)F)C(F)(F)F)cc3)cc2)cc1 (repeat unit) — higher, 128.00 °C
- *CC(=O)NCCCCCCNC(=O)CS* (repeat unit) — lower, -7.00 °C
